Key:
URAT1 [1] = biological target: T1, URAT1 (Homo sapiens, UniProt Q96S37); test: Urate transport assay using URAT1-expressing 293A cells; format: cell-based; conditions: for remaining activity at 100 µM: 293A, authentic chemical 100 μM, mean ± S.D., n = 3, read-out: URAT1-mediated urate transport activity, % of the control; for remaining activity at 100 µM / IC50: 20 s; for IC50: [14C]-urate 5 μM, 37 °C, URAT1-expressing 293A cells, read-out: IC50 against URAT1-mediated urate transport
T1 construct: The complete human URAT1 cDNA in pEGFP-C1; expressed in transfected cells; host or cells: 293A cells (human embryonic kidney 293-derived), transient transfection with PEI-MAX
T1 sequence (Q96S37 1-553): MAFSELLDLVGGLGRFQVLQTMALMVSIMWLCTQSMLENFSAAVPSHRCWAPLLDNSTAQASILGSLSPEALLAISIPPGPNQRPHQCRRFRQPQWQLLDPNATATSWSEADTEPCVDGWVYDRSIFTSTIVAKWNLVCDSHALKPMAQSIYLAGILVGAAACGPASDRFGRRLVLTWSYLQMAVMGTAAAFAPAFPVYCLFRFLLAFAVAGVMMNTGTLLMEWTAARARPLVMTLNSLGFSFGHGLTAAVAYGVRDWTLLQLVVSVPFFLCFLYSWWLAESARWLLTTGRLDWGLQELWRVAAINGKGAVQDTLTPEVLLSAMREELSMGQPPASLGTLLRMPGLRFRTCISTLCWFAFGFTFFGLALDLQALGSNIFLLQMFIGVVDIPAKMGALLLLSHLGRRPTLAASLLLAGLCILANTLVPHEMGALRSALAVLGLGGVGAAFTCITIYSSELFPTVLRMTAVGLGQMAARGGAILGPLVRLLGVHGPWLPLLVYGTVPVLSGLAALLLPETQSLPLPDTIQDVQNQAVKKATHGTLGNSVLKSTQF
Procedure: After 24 h, each vector was transiently transfected into the cells (1 μg of plasmid/5 μL of PEI-MAX/well). At 24 h after transfection, the culture medium was replaced with fresh one.
Briefly, 48 h after plasmid transfection, cells were washed twice with Buffer T2 and then pre-incubated in Buffer T2 for 15 min at 37 °C. Then, the buffer was exchanged with pre-warmed fresh Buffer T2 containing radiolabeled urate ([8-^14C]-uric acid; final concentration, 5 μM) with or without the test compound at the indicated concentrations (0, 0.3, 1, 3, 10, 30, 100, 300, or 500 μM); the cells were further incubated for 20 s at 37 °C; as vehicle control, 1% DMSO was used in this study. Subsequently, the cells were washed five times with ice-cold Buffer T2; then, the cells were lysed with 0.2 M NaOH solution (500 μL/well) on ice. The resulting lysates were neutralized with 1 M HCl solution (100 μL/well). […] Using a Pierce BCA Protein Assay Kit (Thermo Fisher Scientific, Kanagawa, Japan), protein concentration was determined. Urate transport activity was calculated as the incorporated clearance (μL/mg protein/min): (incorporated level of urate [DPM/mg protein/min]/urate level in the incubation mixture [DPM/μL]). URAT1-dependent urate transport activity was calculated by subtracting the urate transport activity of mock (control) cells from that of URAT1-expressing cells.
Urate uptake was examined in the presence of several concentrations of each test compound to determine their IC50 values. Then, URAT1-mediated transport activities were expressed as a percentage of the control (100%).

[2] = parameters: method as in PMID 26785820; conditions: healthy males, four weeks, cited from earlier work
[3] = test system: xanthine oxidoreductase (XOD); conditions: cited from earlier work
URAT1 [4] = biological target: T1, URAT1; conditions: cited from earlier work

| SMILES | remaining activity at 100 µM (URAT1 [1]) [%] | IC50 (URAT1 [1]) [µM] | other results |
| --- | --- | --- | --- |
| O=c1c(O)c(-c2ccc(O)c(O)c2)oc2cc(O)ccc12 [Fisetin] | < 50 | 7.5 | – |
| O=c1c(-c2ccc(O)cc2)coc2cc(O)cc(O)c12 [Genistein] | < 50 | 101 | – |
| O=c1c(O)c(-c2ccc(O)c(O)c2)oc2c(O)c(O)cc(O)c12 [Gossypetin] | < 50 | 31.3 | – |
| O=c1cc(-c2ccc(O)c(O)c2)oc2cc(O)cc(O)c12 [Luteolin] | < 50 | 25.7 | – |
| O=c1c(O)c(-c2cc(O)c(O)c(O)c2)oc2cc(O)cc(O)c12 [Myricetin] | < 50 | 18.1 | – |
| O=c1c(O)c(-c2ccc(O)c(O)c2)oc2cc(O)c(O)c(O)c12 [Quercetagetin] | < 50 | 18.4 | – |
| O=c1c(O)c(-c2ccc(O)c(O)c2)oc2cc(O)cc(O)c12 [Quercetin] | – | 12.6 | Plasma uric acid concentration, mean difference ([2]; 500 mg quercetin daily as single tablet, mean plasma uric acid 5.5 mg/dL): -0.45 mg/dL; Urinary uric acid output over 24 h (24 h-UUA), before vs after treatment ([2]; 500 mg quercetin daily): no significant difference; XOD inhibition (in words) [3]: inhibitory activity; Effect on URAT1-mediated urate transport (in words) (URAT1 [1]; 300 μM, experimentally maximum concentration): inhibited URAT1 |
| O=C(CCc1ccc(O)c(O)c1)c1c(O)cc(O)c([C@@H]2O[C@H](CO)[C@@H](O)[C@H](O)[C@H]2O)c1O [aspalathin, reference compound] | – | – | XOD inhibition (in words) [3]: inhibits XOD |
| O=c1c(O)c(-c2ccc(O)cc2O)oc2cc(O)cc(O)c12 [morin, Morin] | < 50 | – | URAT1 inhibition (in words) (URAT1 [4]; previous report): URAT1 inhibitor |
| O=C(/C=C/c1ccc(O)cc1)c1c(O)cc(O)cc1O [naringenin chalcone, Naringenin chalcone] | < 50 | – | – |
| O=C1C[C@@H](c2ccc(O)cc2)Oc2cc(O)cc(O)c21 [naringenin, reference compound] | – | – | URAT1-mediated urate transport activity, % of the control (URAT1 [4]; 100 μM, previous study of the authors): 17.9 ± 7.7% |

— publication PMC8839210, “Identification of Inhibitory Activities of Dietary Flavonoids against URAT1, a Renal Urate Re-Absorber: In Vitro Screening and Fractional Approach Focused on Rooibos Leaves” (Nutrients, 2022)
